Reference: patent US10131928B2, “Inositol biotransformation” (University Court of the University of St Andrews, priority 2013, dated 2018)

molecular target: T1, TbINO1 (Trypanosoma brucei brucei, UniProt Q5QQ46); experiment: biochemical; type: biochemical; conditions: not given
T1 construct: Hexa-His (N); made in house; host or cells: E. coli BL21 Rosetta (DE3)
T1 sequence (Q5QQ46 1-528): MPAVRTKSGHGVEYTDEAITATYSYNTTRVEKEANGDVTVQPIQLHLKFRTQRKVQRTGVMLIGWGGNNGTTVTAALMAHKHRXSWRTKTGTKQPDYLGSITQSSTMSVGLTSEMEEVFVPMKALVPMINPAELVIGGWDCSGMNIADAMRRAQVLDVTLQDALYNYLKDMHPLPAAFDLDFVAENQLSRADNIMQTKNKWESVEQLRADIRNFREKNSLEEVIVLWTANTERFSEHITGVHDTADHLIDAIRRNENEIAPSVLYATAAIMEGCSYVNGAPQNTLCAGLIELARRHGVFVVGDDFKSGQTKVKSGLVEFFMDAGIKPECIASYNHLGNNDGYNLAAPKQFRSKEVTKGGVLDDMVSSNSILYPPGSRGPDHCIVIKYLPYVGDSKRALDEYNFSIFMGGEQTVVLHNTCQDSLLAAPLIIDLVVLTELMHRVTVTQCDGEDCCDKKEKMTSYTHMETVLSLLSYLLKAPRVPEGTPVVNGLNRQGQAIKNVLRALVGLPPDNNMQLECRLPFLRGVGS
Procedure: (§1) An alternative reaction mixture consisted of 2 mM Tris-Ac (pH 9), 2 mM glucose-6-phosphate, 1 mM NAD^+, 1 mM DTT, 2 mM NH4Ac and 5 μg protein in a final volume of 20 μL. The reaction was incubated at 37° C. for 1 hr and terminated by heating at 100° C. for 10 min and the addition of 80 μL of 10 mM NaOH. For inhibitor studies the standard reaction mixture was prepared without glucose-6-phosphate, the inhibitor was added to the reaction and incubated on ice for 10 min prior to the addition of glucose-6-phosphate and subsequent incubation of 37° C. for 1 hr.
(§2) After quenching the reaction mix was analysed by high performance anion-exchange chromatography using a Dionex HPLC system with a CarboPacPA-1 column and PA-1 guard column (Dionex). The column was pre-equilibrated with 95% Buffer A (1 mM sodium hydroxide) and 5% Buffer B (1M sodium acetate+1 mM sodium hydroxide). An aliquot (20 μL) of the quenched reaction mixture was injected onto the column and eluted a linear gradient of 5-40% […], detected with pulsed amperometric detection and analysed with Chromeleon software (Dionex).
(§3) The TbINO1 was pre-incubated with potential inhibitor prior to the addition of glucose-6-phosphate or fructose-6-phosphate and quantification of inositol-3-phosphate and fructose-6-phosphate by HPLC.

SMILES	IC50	inhibition of INO1 activity
O=C(O)[C@H](O)[C@@H](O)[C@H](O)[C@H](O)COP(=O)(O)O [6-phosphogluconic acid]	> 10 mM	No inhibition
O=P(O)(O)OC[C@H]1OC(O)[C@H](O)[C@@H](O)[C@@H]1F (some centres unmarked) [4-F-Glucose-6-P, 4-fluoro-glucose-6-phospahte]	> 10 mM	
O=C(O)CC(=O)C(=O)O [OAA]		Inhibition was observed
O=P(O)(O)OC[C@H]1OC(O)[C@H](O)[C@@H](F)[C@@H]1O (some centres unmarked) [3-F-Glucose-6-P, 3-fluoro-glucose-6-phospahte]	2.5 mM	
O=P(O)(O)O[C@H]1O[C@H](CO)[C@@H](O)[C@H](O)[C@H]1O [Glucose-1-P, glucose-1-phosphate]		No inhibition
O=P(O)(O)OCC(O)CO (centres unmarked) [Glycerophosphate]		No inhibition
O=C[C@H](O)[C@@H](O)[C@@H](O)[C@H](O)COP(=O)(O)O [Galactose-6-P, galactose-6-phosphate]	> 10 mM	No inhibition
CCCC(CCC)C(=O)O [VPA]		No inhibition
CC(=O)C(=O)O [Pyruvate, pyruvate]	> 10 mM	
O=C(CO)CO [DHA]		no inhibition
CC(=O)N[C@H]1C(O)O[C@H](COP(=O)(O)O)[C@@H](O)[C@@H]1O (some centres unmarked) [Acetylglucosamine-6-P, acetylglucosamine-6-phosphate]		No inhibition
O=CC[C@@H](O)[C@H](O)[C@H](O)CO [2-Deoxyglucose]	> 10 mM	
O=C[C@@H](O)[C@@H](O)[C@H](O)[C@H](O)COP(=O)(O)O [Mannose-6-P, mannose-6-phosphate]	> 10 mM	No inhibition
O=P(O)(O)OC[C@H]1OC(O)C[C@@H](O)[C@@H]1O (some centres unmarked) [2-Deoxyglucose-6-P]	4 mM	
O=C(CO)COP(=O)(O)O [DHAP]		Inhibition was observed
CC(=O)N[C@H]1C(OP(=O)(O)O)O[C@H](CO)[C@@H](O)[C@@H]1O (some centres unmarked) [Acetylglucosamine-1-P, acetylglucosamine-1-phosphate]		No inhibition
C=C(OP(=O)(O)O)C(=O)O [PEP]		No inhibition
O=C[C@H](O)COP(=O)(O)O [GAP]		Inhibition was observed
O=CC(O)CO (centres unmarked) [Glyceraldehyde, glyceraldehyde]	> 10 mM	no inhibition

same assay, conditions: Table 2; inhibitor pre-incubated with recombinant TbINO1; glucose-6-phosphate as substrate; read-out: IC50 INO1 activity

SMILES	IC50
O=P(O)(O)O[C@H]1O[C@H](CO)[C@@H](O)[C@H](O)[C@H]1O [Glucose-1-P, glucose-1-phosphate]	> 10 mM
O=P(O)(O)OCC(O)CO (centres unmarked) [Glycerophosphate]	> 10 mM
CC(=O)N[C@H]1C(O)O[C@H](COP(=O)(O)O)[C@@H](O)[C@@H]1O (some centres unmarked) [Acetylglucosamine-6-P, acetylglucosamine-6-phosphate]	> 10 mM
CC(=O)N[C@H]1C(OP(=O)(O)O)O[C@H](CO)[C@@H](O)[C@@H]1O (some centres unmarked) [Acetylglucosamine-1-P, acetylglucosamine-1-phosphate]	> 10 mM
COC1O[C@H](COP(=O)(O)O)[C@@H](O)[C@H](O)[C@H]1O (some centres unmarked) [1-OMe-Glucose-6-P, glucose-1-O-methyl-6-phospahte]	2.5 mM
O=P(O)(O)OC[C@H]1OC(O)[C@H](F)[C@@H](O)[C@@H]1O (some centres unmarked) [2-F-Glucose-6-P, 2-fluoro-glucose-6-phospahte]	1 mM

same assay, conditions: Table 3; metabolic intermediates; pre-incubated; glucose-6-phosphate as substrate; read-out: IC50 INO1 activity

SMILES	IC50
O=C(O)CC(=O)C(=O)O [OAA]	1.5 mM
CCCC(CCC)C(=O)O [VPA]	> 10 mM
O=C(CO)CO [DHA]	> 10 mM
O=C(CO)COP(=O)(O)O [DHAP]	3 mM
C=C(OP(=O)(O)O)C(=O)O [PEP]	> 10 mM
O=C[C@H](O)COP(=O)(O)O [GAP]	2 mM

molecular target: T1, TbINO1; experiment: Compounds tested as substrates for TbINO1 in the standard reaction mixture, products separated by HPLC; type: biochemical; conditions: tested as substrate, longer time periods; intermediate conversion to glucose-6-phosphate
Procedure: as §1
as §2, with “software (Dionex). The substrate glucose-6-phosphate and the product inositol-3-phosphate are clearly separated by this method. […]” for “software (Dionex).”

SMILES	conversion to inositol-3-phosphate by TbINO1
O=C(CO)[C@@H](O)[C@H](O)[C@H](O)COP(=O)(O)O [fructose-6-phosphate]	quantitative conversion

molecular target: T1, TbINO1; experiment: biochemical; type: biochemical; conditions: not given; remark: another data set of the same source
Procedure: as §1, §2, §3

SMILES	IC50	inhibition of PGI (glucose-6-phosphate isomerase) activity
O=C(O)[C@H](O)[C@@H](O)[C@H](O)[C@H](O)COP(=O)(O)O [6-phosphogluconic acid]	> 10 mM	No inhibition
O=P(O)(O)OC[C@H]1OC(O)[C@H](O)[C@@H](O)[C@@H]1F (some centres unmarked) [4-F-Glucose-6-P, 4-fluoro-glucose-6-phospahte]	> 10 mM	
O=C(O)CC(=O)C(=O)O [OAA]		Inhibition was observed
O=P(O)(O)OC[C@H]1OC(O)[C@H](O)[C@@H](F)[C@@H]1O (some centres unmarked) [3-F-Glucose-6-P, 3-fluoro-glucose-6-phospahte]	2.5 mM	
O=P(O)(O)O[C@H]1O[C@H](CO)[C@@H](O)[C@H](O)[C@H]1O [Glucose-1-P, glucose-1-phosphate]		No inhibition
O=P(O)(O)OCC(O)CO (centres unmarked) [Glycerophosphate]		No inhibition
O=C[C@H](O)[C@@H](O)[C@@H](O)[C@H](O)COP(=O)(O)O [Galactose-6-P, galactose-6-phosphate]	> 10 mM	No inhibition
CCCC(CCC)C(=O)O [VPA]		No inhibition
CC(=O)C(=O)O [Pyruvate, pyruvate]	> 10 mM	
O=C(CO)CO [DHA]		no inhibition
CC(=O)N[C@H]1C(O)O[C@H](COP(=O)(O)O)[C@@H](O)[C@@H]1O (some centres unmarked) [Acetylglucosamine-6-P, acetylglucosamine-6-phosphate]		No inhibition
O=CC[C@@H](O)[C@H](O)[C@H](O)CO [2-Deoxyglucose]	> 10 mM	
O=C[C@@H](O)[C@@H](O)[C@H](O)[C@H](O)COP(=O)(O)O [Mannose-6-P, mannose-6-phosphate]	> 10 mM	No inhibition
O=P(O)(O)OC[C@H]1OC(O)C[C@@H](O)[C@@H]1O (some centres unmarked) [2-Deoxyglucose-6-P]	4 mM	
O=C(CO)COP(=O)(O)O [DHAP]		Inhibition was observed
CC(=O)N[C@H]1C(OP(=O)(O)O)O[C@H](CO)[C@@H](O)[C@@H]1O (some centres unmarked) [Acetylglucosamine-1-P, acetylglucosamine-1-phosphate]		No inhibition
C=C(OP(=O)(O)O)C(=O)O [PEP]		No inhibition
O=C[C@H](O)COP(=O)(O)O [GAP]		Inhibition was observed
O=CC(O)CO (centres unmarked) [Glyceraldehyde, glyceraldehyde]	> 10 mM	no inhibition

same assay, conditions: Table 2; inhibitor pre-incubated with recombinant TbINO1; fructose-6-phosphate as substrate; read-out: IC50 PGI activity

SMILES	IC50
O=P(O)(O)O[C@H]1O[C@H](CO)[C@@H](O)[C@H](O)[C@H]1O [Glucose-1-P, glucose-1-phosphate]	> 10 mM
O=P(O)(O)OCC(O)CO (centres unmarked) [Glycerophosphate]	> 10 mM
CC(=O)N[C@H]1C(O)O[C@H](COP(=O)(O)O)[C@@H](O)[C@@H]1O (some centres unmarked) [Acetylglucosamine-6-P, acetylglucosamine-6-phosphate]	> 10 mM
CC(=O)N[C@H]1C(OP(=O)(O)O)O[C@H](CO)[C@@H](O)[C@@H]1O (some centres unmarked) [Acetylglucosamine-1-P, acetylglucosamine-1-phosphate]	> 10 mM
COC1O[C@H](COP(=O)(O)O)[C@@H](O)[C@H](O)[C@H]1O (some centres unmarked) [1-OMe-Glucose-6-P, glucose-1-O-methyl-6-phospahte]	2.5 mM
O=P(O)(O)OC[C@H]1OC(O)[C@H](F)[C@@H](O)[C@@H]1O (some centres unmarked) [2-F-Glucose-6-P, 2-fluoro-glucose-6-phospahte]	1 mM

same assay, conditions: Table 3; metabolic intermediates; pre-incubated; fructose-6-phosphate as substrate; read-out: IC50 PGI activity

SMILES	IC50
O=C(O)CC(=O)C(=O)O [OAA]	2 mM
CCCC(CCC)C(=O)O [VPA]	> 10 mM
O=C(CO)CO [DHA]	> 10 mM
O=C(CO)COP(=O)(O)O [DHAP]	3 mM
C=C(OP(=O)(O)O)C(=O)O [PEP]	> 10 mM
O=C[C@H](O)COP(=O)(O)O [GAP]	2 mM
